Measurements reported in ChEMBL document CHEMBL1128770, “Amino azoles and azolo-azines as potential hepatoprotectants: Part III” (1995).

Columns and labels:
Format in all cases: functional
Rattus norvegicus [1] = assay: Hepatoprotective activity against thioacetamide (200 mg/kg, sc) induced toxicity in rat at 6 mg/kg dose (po x 7 days), expressed as %protection afforded in various levels of bilirubin
Rattus norvegicus [2] = assay: Hepatoprotective activity against thioacetamide(200 mg/kg, sc) induced toxicity in rat at 6 mg/kg dose(po x 7 days), expressed as %protection afforded in various levels of glutamate pyruvate transaminase (GPT)
Rattus norvegicus [3] = assay: Hepatoprotective activity against thioacetamide (200 mg/kg, sc) induced toxicity in rat at 6 mg/kg dose (po x 7 days), expressed as %protection afforded in various levels of alkaline phosphatase (ALP)
Rattus norvegicus [4] = assay: Hepatoprotective activity against thioacetamide(200 mg/kg, sc) induced toxicity in rat at 6 mg/kg dose(po x 7 days), expressed as %protection afforded in various levels of glutamate oxaloacetate transaminase (GOT)

| Compound | Bilurubin Level (Rattus norvegicus [1]) [mg %] | GPT Level (Rattus norvegicus [2]) [U l-1] | ALP Level (Rattus norvegicus [3]) [U l-1] | GOT Level (Rattus norvegicus [4]) [U l-1] |
| --- | --- | --- | --- | --- |
| Nc1noc(N)c1Cc1ccc(Cl)cc1 | 0.735 | 112.5 | 201 | 106 |
| CC(=N)S [THIOACETAMIDE] | 0.829 | 171.5 | 218.9 | 128 |
| COc1ccc(Cc2c(N)noc2N)cc1 | 0.745 | 87.4 | 215.9 | 99.9 |
| CN(C)c1ccc(Cc2c(N)n[nH]c2N)cc1 | 0.568 | 93.8 | 187.1 | 67.1 |
| Nc1noc(N)c1Cc1ccc2c(c1)OCO2 | 0.69 | 109.3 | 205.8 | 101.5 |
| CC(=O)Nc1[nH]nc(N)c1Cc1ccc(Cl)cc1 | 0.693 | 146 | 204 | 96.7 |
| Nc1nc(N)nc(Cc2cc(-c3ccc(F)cc3)[nH]n2)n1 | 0.807 | 129 | 203.2 | 121.6 |
| Nc1nc(N)nc(Cc2cc(-c3ccc(Cl)cc3)[nH]n2)n1 | 0.748 | 148.5 | 190.5 | 119 |
| Nc1n[nH]c(N)c1Cc1ccc2c(c1)OCO2 | 0.758 | 99.2 | 196.9 | 75.6 |
| CN(C)c1ccc(Cc2c(N)noc2N)cc1 | 0.786 | 146.2 | 206.6 | 114 |
| SILYMARIN | 0.617 | 110 | 199 | 84.5 |
| Cc1ccc(-c2cc(Cc3nnc(N)s3)n(-c3ccccc3)n2)cc1 | 0.575 | 87.5 | 196 | 65.2 |
| COc1ccc(Cc2c(N)n[nH]c2N)cc1 | 0.619 | 85.5 | 187 | 70.4 |
| Nc1n[nH]c(N)c1Cc1ccc(Cl)cc1 | 0.757 | 136.2 | 205.3 | 97.5 |
